Structures are written as SMILES.

Assay [1] deals with T1, FLT3-D835Y (Homo sapiens, UniProt P36888, D835Y).
T1 construct: purchased Invitrogen PV3967
T1 sequence (P36888 27-993 D835Y): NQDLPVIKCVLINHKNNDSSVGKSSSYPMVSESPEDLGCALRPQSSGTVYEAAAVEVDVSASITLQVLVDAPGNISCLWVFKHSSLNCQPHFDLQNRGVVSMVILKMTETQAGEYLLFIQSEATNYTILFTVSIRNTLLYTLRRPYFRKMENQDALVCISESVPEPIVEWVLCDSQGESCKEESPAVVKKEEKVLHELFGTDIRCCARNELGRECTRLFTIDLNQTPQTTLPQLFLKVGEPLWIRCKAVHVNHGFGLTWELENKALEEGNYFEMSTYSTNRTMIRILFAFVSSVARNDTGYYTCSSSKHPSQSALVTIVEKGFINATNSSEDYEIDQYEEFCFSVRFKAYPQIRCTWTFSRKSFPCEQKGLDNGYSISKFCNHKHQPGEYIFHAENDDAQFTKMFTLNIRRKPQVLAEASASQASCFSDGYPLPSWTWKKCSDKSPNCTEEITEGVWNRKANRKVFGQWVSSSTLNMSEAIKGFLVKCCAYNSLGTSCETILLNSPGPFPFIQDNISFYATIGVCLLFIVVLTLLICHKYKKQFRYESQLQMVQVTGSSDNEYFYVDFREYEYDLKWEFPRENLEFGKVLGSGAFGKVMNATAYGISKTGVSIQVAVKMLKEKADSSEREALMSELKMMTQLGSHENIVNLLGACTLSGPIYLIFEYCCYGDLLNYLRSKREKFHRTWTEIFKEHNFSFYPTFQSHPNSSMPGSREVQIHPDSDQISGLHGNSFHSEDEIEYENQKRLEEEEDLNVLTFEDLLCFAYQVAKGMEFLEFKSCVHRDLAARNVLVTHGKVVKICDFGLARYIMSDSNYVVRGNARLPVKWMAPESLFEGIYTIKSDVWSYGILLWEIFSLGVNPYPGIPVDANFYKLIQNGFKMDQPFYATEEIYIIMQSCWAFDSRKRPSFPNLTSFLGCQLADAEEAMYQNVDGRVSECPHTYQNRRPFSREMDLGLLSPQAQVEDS
The experiment in a line: FLT3-D835Y recombinant enzyme kinase assay (AlphaScreen). To be noted: 8 pt, GMean. It counts as biochemical. In outline: (§1)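 Recombinant enzyme phosphorylated biotinylated poly(Glu4-Tyr) peptide (30 nM final) with ATP at 10 μM for FLT3-ITD and FLT3-D835Y or 100 μM for c-KIT. Phosphopeptide was detected by AlphaScreen with streptavidin donor and anti-phosphotyrosine (PY20) acceptor beads (10 μg/mL), read at 580 nm, for IC50 determination.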

The target of assay [2] is T2, c-KIT (Homo sapiens, UniProt P10721).
T2 construct: purchased Millipore 14-559K
The experiment in a line: c-KIT recombinant enzyme kinase assay (AlphaScreen). It counts as biochemical. As to conditions: 100 ATP, 8 pt. The method in brief:
as §1

T2 sequence (P10721 26-976): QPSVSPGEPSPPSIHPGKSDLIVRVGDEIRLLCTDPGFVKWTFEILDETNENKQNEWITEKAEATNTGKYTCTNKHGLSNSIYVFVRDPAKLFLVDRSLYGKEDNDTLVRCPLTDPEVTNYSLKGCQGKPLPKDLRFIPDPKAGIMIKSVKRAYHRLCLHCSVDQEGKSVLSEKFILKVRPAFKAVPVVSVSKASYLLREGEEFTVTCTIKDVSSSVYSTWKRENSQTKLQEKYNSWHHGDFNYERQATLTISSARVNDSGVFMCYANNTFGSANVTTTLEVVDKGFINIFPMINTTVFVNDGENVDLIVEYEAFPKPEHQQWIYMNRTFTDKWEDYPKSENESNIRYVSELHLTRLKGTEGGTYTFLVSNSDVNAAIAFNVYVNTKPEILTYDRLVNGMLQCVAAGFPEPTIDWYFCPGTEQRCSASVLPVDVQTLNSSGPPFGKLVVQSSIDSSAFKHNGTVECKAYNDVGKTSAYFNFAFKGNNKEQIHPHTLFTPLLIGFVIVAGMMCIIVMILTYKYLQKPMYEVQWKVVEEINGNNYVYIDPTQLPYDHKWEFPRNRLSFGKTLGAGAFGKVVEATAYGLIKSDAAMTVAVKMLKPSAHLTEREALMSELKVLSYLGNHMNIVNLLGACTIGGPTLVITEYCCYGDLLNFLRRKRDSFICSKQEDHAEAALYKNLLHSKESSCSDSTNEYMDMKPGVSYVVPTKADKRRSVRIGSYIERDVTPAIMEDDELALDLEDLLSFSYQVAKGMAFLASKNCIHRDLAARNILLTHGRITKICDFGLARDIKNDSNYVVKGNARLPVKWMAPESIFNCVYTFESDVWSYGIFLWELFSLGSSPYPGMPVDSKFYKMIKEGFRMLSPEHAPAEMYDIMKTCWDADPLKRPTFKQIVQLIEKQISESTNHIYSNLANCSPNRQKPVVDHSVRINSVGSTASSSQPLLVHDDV

`COc1ncc(NC(=O)Cc2ccc(-c3cnc4[nH]c(-c5ccc(C#N)nc5)cc4c3)cc2F)cc1C(F)(F)F` [Compound P-0011, 2-[4-[2-(6-cyano-3-pyridyl)-1H-pyrrolo[2,3-b]pyridin-5-yl]-2-fluoro-phenyl]-N-[6-methoxy-5-(trifluoromethyl)-3-pyridyl]acetamide]: in assay [1], the IC50 was in the range of 0.0001 to 10 µM. Turning to `COc1ncc(NC(=O)Cc2ccc(-c3cnc4[nH]c(-c5ccnc(C#N)c5)cc4c3)cc2F)cc1C(F)(F)F` [Compound P-0013, 2-[4-[2-(2-cyano-4-pyridyl)-1H-pyrrolo[2,3-b]pyridin-5-yl]-2-fluoro-phenyl]-N-[6-methoxy-5-(trifluoromethyl)-3-pyridyl]acetamide], the IC50 in assay [2] and in assay [1] was 0.0001 to 10 µM each time. As to `COc1ncc(NC(=O)Cc2ccc(-c3cnc4[nH]c(-c5ccc(C#N)nc5)cc4c3)c(F)c2)cc1C(F)(F)F` [Compound P-0014, 2-[4-[2-(6-cyano-3-pyridyl)-1H-pyrrolo[2,3-b]pyridin-5-yl]-3-fluoro-phenyl]-N-[6-methoxy-5-(trifluoromethyl)-3-pyridyl]acetamide], the IC50 in assay [1] lay in the range of 0.0001 to 10 µM. On the same count and under the same terms, in the case of `COc1ncc(NC(=O)Cc2ccc(-c3cnc4[nH]c(-c5cnn(C(F)F)c5)cc4c3)cc2F)cc1C(F)(F)F` [Compound P-0015, 2-[4-[2-[1-(difluoromethyl)pyrazol-4-yl]-1H-pyrrolo[2,3-b]pyridin-5-yl]-2-fluoro-phenyl]-N-[6-methoxy-5-(trifluoromethyl)-3-pyridyl]acetamide] it was 0.0001 to 10 µM.

Take `COc1ncc(NC(=O)Cc2ccc(-c3cnc4[nH]c(-c5ccnc(C#N)c5)cc4c3)c(F)c2)cc1C(F)(F)F` [Compound P-0016, 2-[4-[2-(2-cyano-4-pyridyl)-1H-pyrrolo[2,3-b]pyridin-5-yl]-3-fluoro-phenyl]-N-[6-methoxy-5-(trifluoromethyl)-3-pyridyl]acetamide]: the IC50 in assay [1] lay in the range of 0.0001 to 10 µM.

For the compound `Cn1cc(Nc2ncc(-c3ccc(CC(=O)Nc4cc(C(F)(F)F)ccn4)cc3F)cn2)cn1` [Compound P-0017, 2-[3-fluoro-4-[2-[(1-methylpyrazol-4-yl)amino]pyrimidin-5-yl]phenyl]-N-[4-(trifluoromethyl)-2-pyridyl]acetamide], the IC50 in assay [2] and in assay [1] was 0.0001 to 10 µM in each case. `Cn1cnc(Nc2ncc(-c3ccc(CC(=O)Nc4cc(C(F)(F)F)ccn4)cc3F)cn2)c1` [Compound P-0018, 2-[3-fluoro-4-[2-[(1-methylimidazol-4-yl)amino]pyrimidin-5-yl]phenyl]-N-[4-(trifluoromethyl)-2-pyridyl]acetamide]: the IC50 in assay [2] and in assay [1] was 0.0001 to 10 µM in each case. As to `Cn1cc(Nc2ncc(-c3cc(F)c(CC(=O)Nc4cc(C(F)(F)F)ccn4)cc3F)cn2)cn1` [Compound P-0019, 2-[2,5-difluoro-4-[2-[(1-methylpyrazol-4-yl)amino]pyrimidin-5-yl]phenyl]-N-[4-(trifluoromethyl)-2-pyridyl]acetamide], the IC50 in assay [2] and in assay [1] was 0.0001 to 10 µM in each case. Take `Cn1cnc(Nc2ncc(-c3cc(F)c(CC(=O)Nc4cc(C(F)(F)F)ccn4)cc3F)cn2)c1` [Compound P-0020, 2-[2,5-difluoro-4-[2-[(1-methylimidazol-4-yl)amino]pyrimidin-5-yl]phenyl]-N-[4-(trifluoromethyl)-2-pyridyl]acetamide]: the IC50 in assay [2] and in assay [1] was 0.0001 to 10 µM in each case.

As for `O=C(Cc1cc(F)c(-c2cnc(Nc3cnn(C(F)F)c3)nc2)cc1F)Nc1cc(C(F)(F)F)ccn1` [Compound P-0021, 2-[4-[2-[[1-(difluoromethyl)pyrazol-4-yl]amino]pyrimidin-5-yl]-2,5-difluoro-phenyl]-N-[4-(trifluoromethyl)-2-pyridyl]acetamide], the IC50 in assay [2] and in assay [1] was 0.0001 to 10 µM each time. On to `Cn1cnc(Nc2ncc(-c3ccc(CC(=O)Nc4cc(C(F)(F)F)ccn4)cc3)cn2)c1` [Compound P-0022, 2-[4-[2-[(1-methylimidazol-4-yl)amino]pyrimidin-5-yl]phenyl]-N-[4-(trifluoromethyl)-2-pyridyl]acetamide], for which the IC50 in assay [2] and in assay [1] was 0.0001 to 10 µM each time. For `O=C(Cc1ccc(-c2cnc(Nc3cnn(C(F)F)c3)nc2)cc1)Nc1cc(C(F)(F)F)ccn1` [Compound P-0023, 2-[4-[2-[[1-(difluoromethyl)pyrazol-4-yl]amino]pyrimidin-5-yl]phenyl]-N-[4-(trifluoromethyl)-2-pyridyl]acetamide], the IC50 in assay [2] and in assay [1] was 0.0001 to 10 µM each time. For the compound `O=C(Cc1ccc(-c2cnc3[nH]c(-c4ccnc(N5CCOCC5)c4)cc3c2)c(F)c1)Nc1cncc(C(F)(F)F)c1` [Compound P-0201, 2-[3-fluoro-4-[2-(2-morpholino-4-pyridyl)-1H-pyrrolo[2,3-b]pyridin-5-yl]phenyl]-N-[5-(trifluoromethyl)-3-pyridyl]acetamide], the concentration for half-maximal inhibition (IC50) in assay [2] and in assay [1] was 0.0001 to 10 µM in each case.

For `CCOc1n[nH]c2ncc(-c3ccc(CC(=O)Nc4cnc(OC)c(C(F)(F)F)c4)cc3F)cc12` [Compound P-0202, 2-[4-(3-ethoxy-1H-pyrazolo[3,4-b]pyridin-5-yl)-3-fluoro-phenyl]-N-[6-methoxy-5-(trifluoromethyl)-3-pyridyl]acetamide], the IC50 in assay [2] and in assay [1] was 0.0001 to 10 µM throughout. Consider `COc1ncc(NC(=O)Cc2ccc(-c3cnc4[nH]nc(N)c4c3)c(F)c2)cc1C(F)(F)F` [Compound P-0203, 2-[4-(3-amino-1H-pyrazolo[3,4-b]pyridin-5-yl)-3-fluoro-phenyl]-N-[6-methoxy-5-(trifluoromethyl)-3-pyridyl]acetamide], for which the IC50 in assay [2] and in assay [1] was 0.0001 to 10 µM in each case. Regarding `CC(C)(O)C#Cc1cc2cc(-c3ccc(CC(=O)Nc4cncc(C(F)(F)F)c4)cc3)cnc2[nH]1` [Compound P-0204, 2-[4-[2-(3-hydroxy-3-methyl-but-1-ynyl)-1H-pyrrolo[2,3-b]pyridin-5-yl]phenyl]-N-[5-(trifluoromethyl)-3-pyridyl]acetamide], the IC50 in assay [2] and in assay [1] was 0.0001 to 10 µM in each case. In the case of `Cn1cc(Nc2ncc(-c3ccc(CC(=O)Nc4cncc(C(F)(F)F)c4)cc3F)cn2)cn1` [Compound P-0205, 2-[3-fluoro-4-[2-[(1-methylpyrazol-4-yl)amino]pyrimidin-5-yl]phenyl]-N-[5-(trifluoromethyl)-3-pyridyl]acetamide], the half-inhibitory concentration (IC50) in assay [2] and in assay [1] was 0.0001 to 10 µM throughout. `COc1ncc(NC(=O)Cc2ccc(-c3cnc(Nc4cnn(C)c4)nc3)c(F)c2)cc1C(F)(F)F` [Compound P-0206, 2-[3-fluoro-4-[2-[(1-methylpyrazol-4-yl)amino]pyrimidin-5-yl]phenyl]-N-[6-methoxy-5-(trifluoromethyl)-3-pyridyl]acetamide]: in assay [1], the IC50 is 0.0001 to 10 µM.

`Cn1cc(Nc2ncc(-c3cc(F)c(CC(=O)Nc4cncc(C(F)(F)F)c4)cc3F)cn2)cn1` [Compound P-0207, 2-[2,5-difluoro-4-[2-[(1-methylpyrazol-4-yl)amino]pyrimidin-5-yl]phenyl]-N-[5-(trifluoromethyl)-3-pyridyl]acetamide]: the IC50 in assay [2] and in assay [1] was 0.0001 to 10 µM in each case. As for `COc1ncc(NC(=O)Cc2cc(F)c(-c3cnc(Nc4cnn(C)c4)nc3)cc2F)cc1C(F)(F)F` [Compound P-0208, 2-[2,5-difluoro-4-[2-[(1-methylpyrazol-4-yl)amino]pyrimidin-5-yl]phenyl]-N-[6-methoxy-5-(trifluoromethyl)-3-pyridyl]acetamide], the IC50 in assay [2] and in assay [1] was 0.0001 to 10 µM throughout.

Regarding `O=C(Cc1ccc(-c2cnc(Nc3cnn(C(F)F)c3)nc2)cc1)Nc1cncc(C(F)(F)F)c1` [Compound P-0209, 2-[4-[2-[[1-(difluoromethyl)pyrazol-4-yl]amino]pyrimidin-5-yl]phenyl]-N-[5-(trifluoromethyl)-3-pyridyl]acetamide], the IC50 in assay [2] and in assay [1] was 0.0001 to 10 µM in each case. With `COc1ncc(NC(=O)Cc2ccc(-c3cnc4[nH]c(C#Cc5cncn5C)cc4c3)cc2)cc1C(F)(F)F` [Compound P-0227, N-[6-methoxy-5-(trifluoromethyl)-3-pyridyl]-2-[4-[2-[2-(3-methylimidazol-4-yl)ethynyl]-1H-pyrrolo[2,3-b]pyridin-5-yl]phenyl]acetamide], the IC50 in assay [1] was 0.0001 to 10 µM.

The values above are taken from US10160747B2, “Compounds and methods for kinase modulation, and indications therefor” (Plexxikon Inc., priority 2016, dated 2018).
